Like-named read-outs stand apart in the source and are kept apart here. *1 amine or outer side, *2 acyl side, *3 side chain or, on linkers, in order; H or OH if unused. Where a SMILES comes first, the peptide text is derived from it. Bridges are numbered along the chain shown (N, C = ends). Roman numbers before positions name the chains, in order. [ ]: non-standard residue; d: D form. Actinocin(9to1) = Cc1c2oc3c(C)ccc(C(=O)[*:1])c3nc-2c(C(=O)[*:2])c(N)c1=O; NMeV = CN[C@H](C(=O)O)C(C)C; Sar = CNCC(=O)O
Legend:
[1] = molecular target: T1, rat GABA(A) receptor (α1, β2 and γ2 subunits) (Rattus norvegicus, UniProt P18508+P62813+P63138); test: GABA receptor affinity test, two-electrode voltage clamp in Xenopus oocytes; type: cell-based; settings: for EC50: co-application with 2 μM GABA (EC10), Xenopus oocytes, read-out: EC50: concentration needed to induce half of the maximal potentiation of GABA effect; for agonist strength at GABA receptors, in words: compared to ivermectin
T1 construct: expressed in transfected cells; host or cells: Xenopus laevis oocytes injected with RNA
T1 sequence (P62813 28-455): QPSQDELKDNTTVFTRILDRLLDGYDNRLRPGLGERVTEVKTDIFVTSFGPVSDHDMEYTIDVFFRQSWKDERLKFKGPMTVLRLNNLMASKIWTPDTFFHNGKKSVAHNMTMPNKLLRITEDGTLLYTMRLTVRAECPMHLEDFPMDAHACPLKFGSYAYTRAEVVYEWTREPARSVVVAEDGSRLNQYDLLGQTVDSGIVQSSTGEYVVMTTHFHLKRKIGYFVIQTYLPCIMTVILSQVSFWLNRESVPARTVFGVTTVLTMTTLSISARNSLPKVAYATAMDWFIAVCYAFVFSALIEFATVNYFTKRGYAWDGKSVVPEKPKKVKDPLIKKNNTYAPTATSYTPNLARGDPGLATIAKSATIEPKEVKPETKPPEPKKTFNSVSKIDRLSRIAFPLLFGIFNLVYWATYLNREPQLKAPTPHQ
T1 sequence (P63138 25-474 limits assumed): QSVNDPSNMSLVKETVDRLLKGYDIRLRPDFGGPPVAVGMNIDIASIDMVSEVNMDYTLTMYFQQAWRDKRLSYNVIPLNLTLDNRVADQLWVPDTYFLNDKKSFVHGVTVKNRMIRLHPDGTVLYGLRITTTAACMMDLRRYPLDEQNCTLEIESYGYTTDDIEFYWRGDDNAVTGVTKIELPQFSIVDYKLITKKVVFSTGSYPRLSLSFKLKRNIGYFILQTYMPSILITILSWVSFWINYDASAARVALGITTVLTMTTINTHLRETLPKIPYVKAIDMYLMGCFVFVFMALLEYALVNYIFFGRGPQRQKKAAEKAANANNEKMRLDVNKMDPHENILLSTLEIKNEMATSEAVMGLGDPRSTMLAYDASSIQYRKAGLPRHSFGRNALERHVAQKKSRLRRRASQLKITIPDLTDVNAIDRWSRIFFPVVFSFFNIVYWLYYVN
T1 sequence (P18508 39-466): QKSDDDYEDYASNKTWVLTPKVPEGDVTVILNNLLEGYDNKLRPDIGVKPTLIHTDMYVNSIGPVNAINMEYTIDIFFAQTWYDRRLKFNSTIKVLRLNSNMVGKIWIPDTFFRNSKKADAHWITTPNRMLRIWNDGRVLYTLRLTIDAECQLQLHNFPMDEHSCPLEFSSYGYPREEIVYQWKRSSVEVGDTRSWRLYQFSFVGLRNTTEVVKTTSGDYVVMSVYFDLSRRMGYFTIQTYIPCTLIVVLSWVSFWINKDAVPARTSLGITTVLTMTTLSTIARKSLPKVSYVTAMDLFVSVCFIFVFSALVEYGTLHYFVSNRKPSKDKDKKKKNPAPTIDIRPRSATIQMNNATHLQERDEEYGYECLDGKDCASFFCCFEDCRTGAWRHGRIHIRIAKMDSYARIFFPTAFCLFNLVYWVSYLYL
Experimental: The ability of ivermectin or moxidectin or ivermectin aglycone or ivermectin monosaccharide to interact with GABA receptors is assayed by electrophysiology measurements. Xenopus laevis oocytes are injected with 46 nl of RNA solution, with RNA coding for α1, β2 and γ2 subunits of the GABA channel at a ratio of 10:10:50 nM. The injected oocytes are incubated in modified Barth's solution [90 mM NaCl, 3 mM KCl, 0.82 mM MgSO4, 0.41 mM CaCl2, 0.34 mM Ca(NO3)2, 100 U/ml penicillin, 100 μg/ml streptomycin and 100 μg/ml kanamycin, 5 mM HEPES pH 7.6] at 18° C. for approximately 36 h before the measurements to ensure the expression of a functional receptor.
Electrophysiological experiments are performed by the two-electrode voltage-clamp method. Measurements were done in ND96 medium containing 96 mM NaCl, 2 mM KCl, 1 mM […], 1.8 mM CaCl2 and 5 mM HEPES, pH 7.5, at a holding potential of −80 mV. The control current is evoked by the application of 2 μM GABA and the normalized relative potentiation of 2 μM GABA-evoked currents by increasing concentration of ivermectin, moxidectin, ivermectin aglycone, or ivermectin monosaccharide is determined as:
[(IMLs+2 μM GABA/I2 μM GABA alone)/(I(MLs+2 μM GABA)Max/I2 μM GABA alone)]×100%
where I2 μM GABA is the control current evoked by 2 μM GABA, IMLs+2 μM GABA is the current evoked by each drug concentration in co-applications with 2 μM GABA, and I(MLs+2 μM GABA)Max is the maximal current evoked by co-applications of drugs and 2 μM GABA. A washout period of 4 min between each GABA application is introduced, allowing receptors to recover from desensitization. Three different batches of oocytes are used to collect data for each analysis. The perfusion system is cleaned between two experiments by washing with 10% DMSO after application of MLs derivatives to avoid contamination.

[2] = molecular target: T2, murine Pgp (mdr1a) (Mus musculus, UniProt P21447); test: Rhodamine 123 transport test in LLC-PK1-mdr1a cells overexpressing murine Pgp; type: cell-based; settings: LLCPK1-mdr1a cells; for Cmax: concentration to obtain maximum inhibitory effect / Emax: maximum effect compared to maximum effect obtained with 5 μM of valspodar: rhodamine 123
T2 construct: expressed in transfected cells; host or cells: LLC-PK1 pig kidney epithelial cells (LLC-PK1-mdr1a), available in the INRA laboratory
T2 sequence (P21447 whole entry): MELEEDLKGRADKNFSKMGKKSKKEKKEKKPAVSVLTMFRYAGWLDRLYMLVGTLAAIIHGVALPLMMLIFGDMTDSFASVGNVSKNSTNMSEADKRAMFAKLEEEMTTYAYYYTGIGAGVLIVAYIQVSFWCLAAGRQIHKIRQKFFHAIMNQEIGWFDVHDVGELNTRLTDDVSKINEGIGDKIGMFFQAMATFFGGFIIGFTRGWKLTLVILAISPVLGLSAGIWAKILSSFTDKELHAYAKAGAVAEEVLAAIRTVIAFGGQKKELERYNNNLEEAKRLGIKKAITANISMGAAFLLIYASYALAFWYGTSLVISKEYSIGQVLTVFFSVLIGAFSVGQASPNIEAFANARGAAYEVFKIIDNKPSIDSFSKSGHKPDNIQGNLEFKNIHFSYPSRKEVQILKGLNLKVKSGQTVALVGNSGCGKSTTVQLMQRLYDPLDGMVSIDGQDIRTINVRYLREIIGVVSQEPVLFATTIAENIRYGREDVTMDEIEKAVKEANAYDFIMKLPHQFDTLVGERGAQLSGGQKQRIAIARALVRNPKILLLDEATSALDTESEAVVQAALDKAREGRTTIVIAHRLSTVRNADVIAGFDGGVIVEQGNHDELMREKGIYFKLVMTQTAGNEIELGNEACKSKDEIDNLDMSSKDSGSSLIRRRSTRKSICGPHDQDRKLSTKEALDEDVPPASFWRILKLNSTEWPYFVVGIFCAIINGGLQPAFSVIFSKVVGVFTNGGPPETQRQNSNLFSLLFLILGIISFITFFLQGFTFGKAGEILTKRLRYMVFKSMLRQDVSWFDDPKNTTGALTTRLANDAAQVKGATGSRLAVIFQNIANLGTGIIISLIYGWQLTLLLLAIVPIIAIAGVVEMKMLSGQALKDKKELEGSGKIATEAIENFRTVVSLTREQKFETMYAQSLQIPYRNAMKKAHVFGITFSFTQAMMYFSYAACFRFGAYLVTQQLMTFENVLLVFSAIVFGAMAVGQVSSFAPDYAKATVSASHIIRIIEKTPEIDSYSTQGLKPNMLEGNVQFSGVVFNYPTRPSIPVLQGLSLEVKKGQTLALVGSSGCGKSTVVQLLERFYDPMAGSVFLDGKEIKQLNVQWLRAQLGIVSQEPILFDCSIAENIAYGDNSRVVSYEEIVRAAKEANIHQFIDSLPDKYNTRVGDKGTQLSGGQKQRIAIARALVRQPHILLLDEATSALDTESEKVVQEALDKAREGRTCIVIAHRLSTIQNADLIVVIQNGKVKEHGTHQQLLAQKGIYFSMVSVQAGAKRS
Experimental: (§1) The cells used were LLC-PK1, pig kidney epithelial cell lines, and LLC-PK1-mdr1a which are recombinant LLC-PK1 cells overexpressing murine abcb1a gene. All cell lines are available in INRA laboratory. The transfected cell line LLC-PK1-HcPgpA, which overexpress nematode Haemonchus contortus PgpA, was developed by R. Prichard (McGill University). Cells were cultured in medium 199 supplemented with penicillin (100 units/ml), streptomycin ([…]), 10% of foetal calf serum and geneticin G418 (400 mg/1) as selecting compound for the LLC-PKI-mdr1a and LLC-PK1-HcPgpA cells. All compounds and medium are from Invitrogen, Cergy Pontoise, France. Cells were seeded on 24-well plates (Sarstedt, Orsay, France) at 2×10^5 cells/well in G418-free medium until confluence for transport activity and on 96-well plates for viability assay.
(§2) Cells were cultured with rhodamine 123 (10 μM, purchased from Sigma) with or without valspodar (VSP, […]). Compounds of interest were dissolved in DMSO and diluted in the medium (final DMSO concentration=0.1%) in a concentration range of 0.1-50 μM. After the 2-h incubation period, the cells were lysed and lysates were stored at −20° C. until analysis. To study the Pgp transport activity, the intracellular accumulation of fluorescent Rho 123 was determined by reading fluorescence in the cell lysates with a spectrofluorimeter (PerkinElmer LS50B, max excitation=507 nm; max emission=529 nm). Protein concentration was determined in lysates with BCA kit using bovine serum albumin as protein standard (Thermo scientific) Results were expressed as fluorescence arbitrary units after normalization to cellular protein content per well.

[3] = molecular target: nematode Haemonchus contortus PgpA (HcPgpA) (Haemonchus contortus, UniProt O61301); test: Rhodamine 123 transport test in LLC-PK1-HcPgpA cells overexpressing nematode Pgp; type: cell-based; settings: for EC50: LLC-PK1-HcPgpA cells, read-out: EC50, concentration of half inhibitory effect, Nematode PgpA
Sequence of nematode Haemonchus contortus PgpA (HcPgpA) (O61301 entry or part of it): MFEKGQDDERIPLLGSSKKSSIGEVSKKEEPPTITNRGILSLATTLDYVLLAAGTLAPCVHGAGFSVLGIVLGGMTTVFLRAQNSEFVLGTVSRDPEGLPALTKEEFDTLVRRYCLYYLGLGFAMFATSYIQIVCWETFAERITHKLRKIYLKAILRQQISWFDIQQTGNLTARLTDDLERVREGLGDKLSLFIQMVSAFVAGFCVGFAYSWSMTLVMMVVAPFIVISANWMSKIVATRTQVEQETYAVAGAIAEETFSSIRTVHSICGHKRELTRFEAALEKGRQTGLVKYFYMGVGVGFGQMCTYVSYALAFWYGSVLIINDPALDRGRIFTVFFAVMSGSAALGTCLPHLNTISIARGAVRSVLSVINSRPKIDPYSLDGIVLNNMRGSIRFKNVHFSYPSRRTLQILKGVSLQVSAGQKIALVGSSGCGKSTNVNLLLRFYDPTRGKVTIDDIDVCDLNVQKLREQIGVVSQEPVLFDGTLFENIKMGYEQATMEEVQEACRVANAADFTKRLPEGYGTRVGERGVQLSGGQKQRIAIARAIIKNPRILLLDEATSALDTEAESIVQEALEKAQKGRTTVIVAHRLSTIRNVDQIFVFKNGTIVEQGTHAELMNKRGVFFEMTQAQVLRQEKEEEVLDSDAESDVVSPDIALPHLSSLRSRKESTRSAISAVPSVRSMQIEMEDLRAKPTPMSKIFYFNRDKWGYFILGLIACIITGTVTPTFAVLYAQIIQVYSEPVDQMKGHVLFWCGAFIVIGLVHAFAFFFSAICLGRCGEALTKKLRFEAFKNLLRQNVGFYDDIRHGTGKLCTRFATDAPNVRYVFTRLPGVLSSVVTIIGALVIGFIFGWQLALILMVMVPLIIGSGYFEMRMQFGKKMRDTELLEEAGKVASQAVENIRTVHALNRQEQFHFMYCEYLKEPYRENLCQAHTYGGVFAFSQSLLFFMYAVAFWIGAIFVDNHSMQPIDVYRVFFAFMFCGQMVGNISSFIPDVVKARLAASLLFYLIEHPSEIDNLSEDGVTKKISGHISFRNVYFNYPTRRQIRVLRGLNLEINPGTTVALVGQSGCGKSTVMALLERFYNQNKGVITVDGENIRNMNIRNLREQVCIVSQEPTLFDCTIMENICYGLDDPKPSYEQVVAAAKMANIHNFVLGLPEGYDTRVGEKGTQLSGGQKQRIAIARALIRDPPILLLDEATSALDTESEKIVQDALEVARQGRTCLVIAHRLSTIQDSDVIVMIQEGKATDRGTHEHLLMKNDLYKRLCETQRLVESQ
Experimental: as §1, §2

[4] = tested on: multidrug resistant cells DC-3F/ADX; test: Reversal of actinomycin D resistance in DC-3F/ADX cells, MTT test; type: cell-based, Chinese hamster; settings: for RF (IC50 for toxic drug alone/IC50 for toxic drug in the presence of compound): ActD; for RF (IC50 for toxic drug alone/IC50 for toxic drug in the presence of compound) / toxicity of actinomycin D when combined with the compound: compound at 5 μM
From the text: (§3) Multidrug resistant tumor cells used in the present invention were Human lymphoma parental CEM and vinblastine-resistant CEM/VLB (Zordan-Nudpo et al., 1993) and parental […] and multidrug resistant cells DC-3F/ADX selected from spontaneously transformed DC-3F Chinese hamster lung fibroblasts on the basis of their resistance to actinomycin D (Biedler and Riehm, 1970). Both types of resistant cells overexpressed Pgp.
(§4) CEM/VLB cells and DC-3F/ADX cells described in aforementioned part 1.3 were plated into 96 well plates and allowed to grow for 24 h. They were then incubated 4 days with vinblastine (concentration range 0-1 μM) with or without IVM at 2.5 μM or ivermectin aglycone (IVM-Agly) at 2.5 and at 5 μM (FIG. 7); or 2 days with actinomycin D with actinomycin (concentration range 0.01-10 μM) with or without ivermectin (IVM) or ivermectin aglycone (IVM-Agly) at 5 μM (FIG. 8). Cytotoxicity was determined using the MTT test. IC50 values were graphically determined and they represent the concentration needed for half cell survival. Fold reversal of multidrug resistance called reversion factors were the ratio of IC50 for toxic drug alone/IC50 for toxic drug in the presence of IVM-Agly.

[5] = tested on: Caenorhabditis elegans resistant to ivermectin (IVR10); test: Ivermectin resistance gravid assay in Caenorhabditis elegans IVR10; type: in vivo; settings: for RF: C. elegans IVR10, IC50 IVM alone / IC50 IVM with reversal agent; for effect of the agent alone on the development of C. elegans: verapamil at 8 μM, IVM-Agly at 10 ng/ml
Experimental: A gravid assay method, based on the development of eggs to gravid adults over a 96 hr incubation period, was used to determine the resistance with respect to ivermectin (IVM) in C. elegans. The eggs were collected through rinsing the C. elegans worms resistant to IVM (IVR10). Sixty eggs were incubated/well, in standard conditions for four days (96 hours) in order reach adulthood (gravid) in the presence of drugs as followed: ivermectin aglycone (IVM-Agly) alone at 10 ng/ml (11.4 nM); verapamil (VRP) alone at 8 μM; IVM alone: […]; IVM+VRP 8 μM: 0, 1, 2, 4, 6, 8, 10, 20 ng/ml IVM; IVM+IVM-Agly 10 ng/ml: 0, 1, 2, 4, 6, 8, 10, 20 ng/ml ([…]) IVM. Assays were performed in triplicates per condition treatment and the experiment was performed 3 times.

[6] = tested on: Mdr1ab−/− mice; test: In vivo toxicity test in Pgp-deficient mice; settings: mouse, sc
Experimental: Wild-type and the Pgp knock-out mdr1ab^−/− mice with a FVB genetic background were obtained from Taconic (NY, USA). In rodents, there are two Pgps encoded by abc1a and abc1b genes and mdr1ab^−/− mice were deficient for the two gene products. Mice were housed at INRA's transgenic rodent facility at 22±2° C. under 12-hour light/dark cycles. Animals sampling was designed to reduce the influence of interfering parameters such as litter specificity (seven to nine different litters for a ten animals group). Mice received a standard chow diet recommended for the breeding and rearing of rodents (Harlan Teklad TRM Rat/Mouse Diet; Harlan Teklad, Gannat, France). Water and food were available ad libitum. In vivo studies were conducted in mice under European laws on the protection of animals and protocols are performed under procedure and principal for good clinical practice.
Toxicity of ivermectin and ivermectin aglycone is measured in Pgp-deficient mice. Mdr1ab^−/− mice are injected subcutaneously with increasing doses of ivermectin or ivermectin aglycone formulated in propylene glycol/[…] (60:40, v/v). Higher injected doses are 1.5 mg/kg (1.7 μmol/kg) for ivermectin and 16 mg/kg (27 μmol/kg) for ivermectin aglycone, respectively. Toxicity is evaluated during 24 h. […]

[7] = tested on: vinblastine-resistant CEM/VBL cells; test: Reversal of vinblastine resistance in CEM/VBL cells, MTT test; type: cell-based, Human; settings: 1 μM vinblastine
From the text: as §3, §4

[8] = tested on: Human lymphoma parental CEM cells; test: Vinblastine cytotoxicity in parental CEM cells, MTT test; type: cell-based; settings: at concentrations below 0.001 μM
From the text: as §3, §4

[9] = Table 2, read-out: EC50, concentration of half inhibitory effect, Murine Pgp

Compound `CO/N=C1\C[C@]2(C[C@@H]3C[C@@H](C/C=C(\C)C[C@@H](C)/C=C/C=C4\CO[C@@H]5[C@H](O)C(C)=C[C@@H](C(=O)O3)[C@]45O)O2)O[C@H](/C(C)=C/C(C)C)[C@H]1C` [MOX, moxidectin] has an EC50 [1] of 5.6 ± 1.5 nM.

In the case of ivermectin, the “Cmax: concentration to obtain maximum inhibitory effect” value [2] is reported as 5.0 µM, the “Emax: maximum effect compared to maximum effect obtained with 5 μM of valspodar” value [2] is reported as 88.0 % valspodar ® and the EC50 [2, 9] is reported as 500 nM. The EC50 [3] was 600 nM, the EC50 ([1]; listed as IVM) was 29.3 ± 3.4 nM and the EC50 [1] was 29 nM. For the same compound, the “RF (IC50 for toxic drug alone/IC50 for toxic drug in the presence of compound)” value ([4]; DC-3F/ADX cells) was 45, the “toxicity of actinomycin D when combined with the compound” value ([4]; DC-3F/ADX cells) was “became toxic” and the “IC50 of IVM alone” value ([5]; C. elegans IVR10, egg to gravid adult, 96 h) was 6.8 ± 0.2 ng/mL. For the same compound, the IC50 ([5]; C. elegans IVR10, egg to gravid adult, 96 h, read-out: IC50 of IVM alone) was 7.8 ± 0.2 nM and the “concentration blocking the development of C. elegans IVR10 eggs” value ([5]; IVM alone) was about 10 nM.

For `Cc1c2oc3c(C)ccc(C(=O)N[C@@H]4C(=O)N[C@H](C(C)C)C(=O)N5CCC[C@H]5C(=O)N(C)CC(=O)N(C)[C@@H](C(C)C)C(=O)O[C@@H]4C)c3nc-2c(C(=O)N[C@@H]2C(=O)N[C@H](C(C)C)C(=O)N3CCC[C@H]3C(=O)N(C)CC(=O)N(C)[C@@H](C(C)C)C(=O)O[C@@H]2C)c(N)c1=O` [ActD, actinomycin D] (I: T[dV]P[Sar][NMeV] / II: T[dV]P[Sar][NMeV]; ester I:1-I:C, II:1-II:C; linker I:N-II:N via Actinocin(9to1)), the “DC-3F/ADX viability with actinomycin D alone” value ([4]; 1 μM actinomycin D) was “not altered” and the IC50 ([4]; DC-3F/ADX cells, MTT, read-out: IC50 of actinomycin D alone) was 5000 nM.

`COc1ccc(CCN(C)CCCC(C#N)(c2ccc(OC)c(OC)c2)C(C)C)cc1OC` (stereo not shown) [verapamil] was tested, and the RF [5] was 2.1 and the “effect of the agent alone on the development of C. elegans” value [5] was “had no effects”.

In the case of `CCC(C)C1OC2(CCC1C)CC1CC(CC=C(C)C(OC3CC(OC)C(O)C(C)O3)C(C)C=CC=C3COC4C(O)C(C)=CC(C(=O)O1)C34O)O2` (stereo not shown) [IVM Monosaccharide], the EC50 [1] is reported as 122 nM and the “agonist strength at GABA receptors, in words” value [1] is reported as “weak agonist”.

For `CCC(C)C1OC2(CCC1C)CC1CC(CC=C(C)C(O)C(C)C=CC=C3COC4C(O)C(C)=CC(C(=O)O1)C34O)O2` (stereo not shown) [Ivermectin aglycone, 22,23-dihydroavermectin B1 aglycone], the “Cmax: concentration to obtain maximum inhibitory effect” value [2] was 10.0 µM, the “Emax: maximum effect compared to maximum effect obtained with 5 μM of valspodar” value [2] was 80.0 % valspodar ® and the “Cmax: concentration to obtain maximum inhibitory effect” value ([2]; listed as ivermectin aglycone) was “about 10 μM”. It also gave an EC50 ([2]; Table 1, read-out: EC50: effective concentration for inhibiting 50% of transport of rhodamine 123 by murine Pgp) of 1000 nM, an EC50 [2, 9] of 2500 nM and an EC50 [3] of 500 nM. For the same compound, the “inhibitory potency for parasite HcPgpA relative to mammalian Pgp” value ([3]; ratio of EC50 murine Pgp / HcPgpA, 120 min) was 5 times, the EC50 [1] was 215 nM and the “agonist strength at GABA receptors, in words” value [1] was “weak agonist”. The toxicity in words [6] was “does not show any toxicity”, the “RF (IC50 for toxic drug alone/IC50 for toxic drug in the presence of compound)” value ([4]; DC-3F/ADX cells) was 62 and the “toxicity of actinomycin D when combined with the compound” value ([4]; DC-3F/ADX cells) was “became toxic”. The RF [5] was 1.5 and the “effect of the agent alone on the development of C. elegans” value [5] was “had no effects”.

In the case of `CC[C@]1(O)C[C@@H]2CN(CCc3c([nH]c4ccccc34)[C@@](C(=O)OC)(c3cc4c(cc3OC)N(C)[C@H]3[C@@](O)(C(=O)OC)[C@H](OC(C)=O)[C@]5(CC)C=CCN6CC[C@]43[C@@H]65)C2)C1` [VBL, vinblastine], the “viability of CEM/VBL cells in vinblastine alone” value [7] is reported as “fully viable” and the “sensitivity of parental cells to VBL” value [8] is reported as “highly sensitive”.
